Biological target: BRD4 (Homo sapiens (Human), UniProt O60885)
Details: read-out: BRD4 IC50 (μM gmean)

Row | Compound | IC50 [µM]
1 | COC(=O)N1c2ccc3c(nc(C[C@@H](C)c4ccccc4)n3C)c2CC[C@@H]1C [Example 1, methyl (S)-3,7-dimethyl-2-((R)-2-phenylpropyl)-3,7,8,9-tetrahydro-6H-imidazo[4,5-f]quinoline-6-carboxylate] | 1 to 1000
2 | COC(=O)N1c2ccc3c(nc(C[C@H](C)c4ccccc4)n3C)c2CC[C@@H]1C [Example 2, methyl (S)-3,7-dimethyl-2-((S)-2-phenylpropyl)-3,7,8,9-tetrahydro-6H-imidazo[4,5-f]quinoline-6-carboxylate] | 1 to 1000
3 | COC(=O)N1c2ccc3[nH]c(CCc4ccccc4)nc3c2CC[C@@H]1C [Example 7, methyl (S)-7-methyl-2-phenethyl-3,7,8,9-tetrahydro-6H-imidazo[4,5-f]quinoline-6-carboxylate] | 1 to 1000
4 | COC(=O)N1c2ccc3[nH]c(Cc4ccccc4)nc3c2CC[C@@H]1C [Example 9] | 1 to 1000
5 | COC(=O)N1c2ccc3c(nc(CCc4ccccc4)n3C)c2CC[C@@H]1C [Example 10] | 1 to 1000
6 | COC(=O)N1c2ccc3c(nc(CCn4cccn4)n3C)c2CC[C@@H]1C [Example 11] | 1 to 1000
7 | COC(=O)N1c2ccc3[nH]c(CCc4ccccn4)nc3c2CC[C@@H]1C [Example 12] | 1 to 1000
8 | COC(=O)N1c2ccc3c(nc(CCc4cccnc4)n3C)c2CC[C@@H]1C [Example 13] | 1 to 1000
9 | COC(=O)N1c2ccc3c(nc(CCc4ccncc4)n3C)c2CC[C@@H]1C [Example 14] | 1 to 1000
10 | COC(=O)N1c2ccc3c(nc(CCn4ccccc4=O)n3C)c2CC[C@@H]1C [Example 15] | 1 to 1000
11 | COC(=O)N1c2ccc3c(nc(Cc4ccccc4)n3[C@H]3C[C@@H](C(=O)O)C3)c2CC[C@@H]1C [Example 20] | 1 to 1000
12 | COC(=O)N1c2ccc3c(nc(Cc4ccccc4)n3[C@H]3C[C@H](C(=O)O)C3)c2CC[C@@H]1C [Example 21] | 1 to 1000
13 | COC(=O)N1c2ccc3c(nc(Cc4ccccc4)n3C34CCC(C(=O)O)(CC3)C4)c2CC[C@@H]1C [Example 24] | 1 to 1000
14 | COC(=O)N1c2ccc3c(nc(Cc4ccccc4)n3[C@H]3CC[C@](C)(C(=O)O)CC3)c2CC[C@@H]1C [Example 25] | 1 to 1000
15 | COC(=O)N1c2ccc3c(nc(Cc4ccccc4)n3[C@H]3CC[C@@](C)(C(=O)O)CC3)c2CC[C@@H]1C [Example 26] | 1 to 1000
16 | COC(=O)N1c2ccc3c(nc(Cc4ccc(OC)cc4)n3[C@H]3CC[C@H](C(=O)O)CC3)c2CC[C@@H]1C [Example 27] | 1 to 1000
17 | COC(=O)N1c2ccc3c(nc(Cc4ccc(OC)c(F)c4)n3[C@H]3CC[C@H](C(=O)O)CC3)c2CC[C@@H]1C [Example 28] | 1 to 1000
18 | COC(=O)N1c2ccc3c(nc(CCn4cccn4)n3[C@H]3CC[C@H](C(=O)O)CC3)c2CC[C@@H]1C [Example 31] | 1 to 1000
19 | COC(=O)N1c2ccc3c(nc(CCn4nccn4)n3[C@H]3CC[C@H](C(=O)O)CC3)c2CC[C@@H]1C [Example 32] | 1 to 1000
20 | COC(=O)N1c2ccc3c(nc(CCc4cnc(C)o4)n3[C@H]3CC[C@H](C(=O)O)CC3)c2CC[C@@H]1C [Example 33] | 1 to 1000

Row | Compound | IC50 [µM]
21 | COC(=O)N1c2ccc3c(nc(CCc4cnn(C)c4)n3[C@H]3CC[C@H](C(=O)O)CC3)c2CC[C@@H]1C [Example 34] | 1 to 1000
22 | COC(=O)N1c2ccc3c(nc(CCc4ncc(C)o4)n3[C@H]3CC[C@H](C(=O)O)CC3)c2CC[C@@H]1C [Example 35] | 1 to 1000
23 | COC(=O)N1c2ccc3c(nc(CCc4nc(C)co4)n3[C@H]3CC[C@H](C(=O)O)CC3)c2CC[C@@H]1C [Example 36] | 1 to 1000
24 | COC(=O)N1c2ccc3c(nc(CCc4cc(C)no4)n3[C@H]3CC[C@H](C(=O)O)CC3)c2CC[C@@H]1C [Example 37] | 1 to 1000
25 | COC(=O)N1c2ccc3c(nc(CCc4nnc(C)o4)n3[C@H]3CC[C@H](C(=O)O)CC3)c2CC[C@@H]1C [Example 38] | 1 to 1000
26 | COC(=O)N1c2ccc3c(nc(CCn4ccc(C)n4)n3[C@H]3CC[C@H](C(=O)O)CC3)c2CC[C@@H]1C [Example 39] | 1 to 1000
27 | COC(=O)N1c2ccc3c(nc(CCn4cc(Cl)cn4)n3[C@H]3CC[C@H](C(=O)O)CC3)c2CC[C@@H]1C [Example 41] | 1 to 1000
28 | COC(=O)N1c2ccc3c(nc(CCc4nc(C)no4)n3[C@H]3CC[C@H](C(=O)O)CC3)c2CC[C@@H]1C [Example 42] | 1 to 1000
29 | COC(=O)N1c2ccc3c(nc(Cc4ccccc4)n3-c3ccc(C(=O)O)cc3)c2CC[C@@H]1C [Example 43] | 1 to 1000
30 | COC(=O)N1c2ccc3c(nc(Cc4ccccc4)n3-c3cccc(C(=O)O)c3)c2CC[C@@H]1C [Example 44] | 1 to 1000
31 | COC(=O)N1c2ccc3c(nc(CCc4ccn(C)n4)n3[C@H]3CC[C@H](C(=O)O)CC3)c2CC[C@@H]1C [Example 45] | 1 to 1000
32 | COC(=O)N1c2ccc3c(nc([C@H](CO)c4ccccc4)n3C3CCOCC3)c2CC[C@@H]1C [Example 46, methyl (7S)-2-[(1R)-2-hydroxy-1-phenylethyl]-7-methyl-3-(oxan-4-yl)-3H,6H,7H,8H,9H-imidazo[4,5-f]quinoline-6-carboxylate] | 1 to 1000
33 | COC(=O)N1c2ccc3c(nc([C@@H](CO)c4ccccc4)n3C3CCOCC3)c2CC[C@@H]1C [Example 47, methyl (7S)-2-[(1S)-2-hydroxy-1-phenylethyl]-7-methyl-3-(oxan-4-yl)-3H,6H,7H,8H,9H-imidazo[4,5-f]quinoline-6-carboxylate] | 1 to 1000
34 | COC(=O)N1c2ccc3c(nc([C@H](C)c4ccccc4)n3[C@H]3CC[C@H](C(=O)O)CC3)c2CC[C@@H]1C [Example 56, trans-4-[(7S)-6-(methoxycarbonyl)-7-methyl-2-[(1R)-1-phenylethyl]-3H,6H,7H,8H,9H-imidazo[4,5-f]quinolin-3-yl]cyclohexane-1-carboxylic Acid] | 1 to 1000
35 | COC(=O)N1c2ccc3c(nc([C@@H](C)c4ccccc4)n3[C@H]3CC[C@H](C(=O)O)CC3)c2CC[C@@H]1C [Example 57, trans-4-[(7S)-6-(methoxycarbonyl)-7-methyl-2-[(1S)-1-phenylethyl]-3H,6H,7H,8H,9H-imidazo[4,5-f]quinolin-3-yl]cyclohexane-1-carboxylic Acid] | 1 to 1000
36 | COC(=O)N1c2ccc3c(nc([C@H](C)c4ccccc4)n3C3CCNCC3)c2CC[C@@H]1C [Example 58, methyl (S)-7-methyl-2-((R)-1-phenylethyl)-3-(piperidin-4-yl)-3,7,8,9-tetrahydro-6H-imidazo[4,5-f]quinoline-6-carboxylate] | 1 to 1000
37 | COC(=O)N1c2ccc3c(nc([C@@H](C)c4ccccc4)n3C3CCNCC3)c2CC[C@@H]1C [Example 59, methyl (S)-7-methyl-2-((S)-1-phenylethyl)-3-(piperidin-4-yl)-3,7,8,9-tetrahydro-6H-imidazo[4,5-f]quinoline-6-carboxylate] | 1 to 1000
38 | COC(=O)N1c2ccc3c(nc(Cc4ccccc4)n3[C@@H]3CC[C@@H](CO)OC3)c2CC[C@@H]1C [Example 66, methyl (S)-2-benzyl-3-((3R,6S)-6-(hydroxymethyl)tetrahydro-2H-pyran-3-yl)-7-methyl-3,7,8,9-tetrahydro-6H-imidazo[4,5-f]quinoline-6-carboxylate] | 1 to 1000
39 | COC(=O)N1c2ccc3c(nc(Cn4ccccc4=O)n3[C@H]3CC[C@H](O)CC3)c2CC[C@@H]1C [Example 71] | 1 to 1000

— US11292791B2 (priority 2017, dated 2022)
